According to patent publication EP0819124B1, “AZOLE COMPOUNDS WITH ANTIMYCOTIC ACTIVITY FOR HUMAN AND VETERINARY USE” (ZAMBON GROUP S.p.A., priority 1995, dated 1996):
Values after ≈ are worked out from the molar mass of the structure shown. Read-outs that look alike come from different tables or passages of the source.

What was measured:
C. albicans 1040 = assay: In vitro antimycotic activity, macromethod of scalar broth dilutions (YNB); assay type: cell-based, Candida albicans
Procedure: (§1) The determination of the activity inhibiting the growth of mycetes was evaluated by the macromethod of scalar brothdilutions in geometrical progression (M.R. McGinnis and M.G. Rinaldi, "Antifungal drugs: mechanisms of action, drug resistance, susceptibility testing and assay of activity in biological fluids", in Antibiotic in Laboratory Medicine, Ed. V. Lorian, Baltimora 1991).
(§2) As culture media Yeast Nitrogen Base broth (YNB) and Sabouraud Dextrose broth (SDB) were used for yeasts and moulds, respectively.
(§3) The results obtained in SDB (after incubation at 28°C for 7 days) were expressed as minimum inhibiting concentrations (MIC) the growth of mycetes, while those obtained in YNB (after incubation at 35°C for 48 hours) were expressed as concentrations able to inhibit at 50% (IC50) the growth of the yeast.
(§4) As reference compounds Fluconazole, Itraconazole and Genaconazole were used.

C. neoformans = assay: as above; assay type: cell-based; conditions: Cryptococcus neoformans
Procedure: as §1, §2, §3, §4

T.mentagrophytes = assay: In vitro antimycotic activity, macromethod of scalar broth dilutions (SDB); assay type: cell-based, Trychophyton mentagrophytes; conditions: Trichophyton mentagrophytes, 168 h
Procedure: as §1, §2, §3, §4

A. fumigatus = assay: as above; assay type: cell-based; conditions: Aspergillus fumigatus, 168 h
Procedure: as §1, §2, §3, §4

Candida albicans 1040 = assay: In vivo antimycotic activity in mice experimentally infected by C. albicans, oral route; design: species or system Charles River white mice (CD1 strain); conditions: for % percentage of survival after day 3 / % percentage of survival after day 6: mice infected by C. albicans, dose 25 mg/kg/os; for PD50 at 8th day / PD50 at 14th day: oral route, probits analysis; for PD50 at 8th day: 8 days from the infection; for PD50 at 14th day: 14 days from the infection
Procedure: Charles River white mice (CD1 strain) weighing from 23 to 25 g, normo-feeded with standard diet and water ad libitum were used.
A suspension (0.2 ml containing 2.5x10^7 cells/ml) of Candida albicans 1040 in physiologic solution was injected to each animal by venous route. Immediately after the infection and after 4, 24 and 48 hours, the animals received by oral route (in arabic gum at 2%) doses increasing in a geometrical progression of the compound to be tested. The infected group was used as control.
The observation of the mortality of the mice was prolonged up to 14 days. From the number of survived animals for each concentration the average protective dose (DP50) was calculated by probits analysis (L.Lison - "Statistica applicata alla biologia sperimentale. La programmazione dell'esperimento e l'analisi dei risultati" - Casa Editrice Ambrosiana, 1961).
Compounds R1 and R2 were used as comparative compounds.
Fluconazole and Itraconazole were used as reference compounds.

C. krusei (2) = assay: In vitro antimycotic activity, strain panel (Table 2); assay type: cell-based, Candida krusei; conditions: Pichia kudriavzevii
Procedure: as §1, §2, §3, §4
(§5) Note to the table: MIC expressed as µg/ml Within brackets the number of tested strains Table 3

C. glabrata (2) = assay: as above; assay type: cell-based, Candida glabrata; conditions: Nakaseomyces glabratus; C. glabrata, 2 strains; single value or range printed under head MIC50 MIC90; read-out: MIC
Procedure: as §1, §2, §3, §4, §5

B. capitatus (1) = assay: as above; assay type: cell-based; conditions: Magnusiomyces capitatus; B. capitatus, 1 strain; single value under head MIC50 MIC90; read-out: MIC
Procedure: as §1, §2, §3, §4, §5

C. albicans (7) = assay: as above; assay type: cell-based; conditions: Candida albicans, C. albicans, 7 strains; for MIC50: read-out: MIC50; for MIC90: read-out: MIC90
Procedure: as §1, §2, §3, §4, §5

C. neoformans (4) = assay: as above; assay type: cell-based; conditions: Cryptococcus neoformans, C. neoformans, 4 strains; for MIC50: read-out: MIC50; for MIC90: read-out: MIC90
Procedure: as §1, §2, §3, §4, §5

[1] = tested on: C. spp * (5) (C. parapsilosis, lusitaniae, kefyr); assay: as above; assay type: cell-based; conditions: Lodderomyces parapsilosis, C. parapsilosis, lusitaniae, kefyr, 5 strains; for MIC50: read-out: MIC50; for MIC90: read-out: MIC90
Procedure: as §1, §2, §3, §4, §5

C. tropicalis (2) = assay: as above; assay type: cell-based; conditions: Candida tropicalis; C. tropicalis, 2 strains; single value or range printed under head MIC50 MIC90; read-out: MIC
Procedure: as §1, §2, §3, §4, §5

Trichosporon sp. (1) = assay: as above; assay type: cell-based; conditions: Trichosporon sp., 1 strain; single value under head MIC50 MIC90; read-out: MIC
Procedure: as §1, §2, §3, §4, §5

Fusarium sp = assay: In vitro antimycotic activity against recently isolated Fusarium strains (Tables 2 and 3); assay type: cell-based; conditions: Fusarium
Procedure: as §1, §2, §3, §4, §5

[2] = Candida albicans, C. albicans 1040, YNB, incubation at 35°C for 48 hours, read-out: IC50
[3] = C. neoformans, YNB, incubation at 35°C for 48 hours, read-out: IC50
[4] = T.mentagrophytes, SDB, incubation at 28°C for 7 days, read-out: MIC
[5] = A. fumigatus, SDB, incubation at 28°C for 7 days, read-out: MIC

Row | Compound | IC50 (C. albicans 1040; [2]) | IC50 (C. neoformans; [3]) | MIC (T.mentagrophytes; [4]) | MIC (A. fumigatus; [5]) | PD50 at 8th day (Candida albicans 1040) | PD50 at 14th day (Candida albicans 1040) | other results
1 | CCC(OC(F)(F)C(F)F)C(C)C(O)(Cn1cncn1)c1ccc(Cl)cc1Cl (racemic) [Compound 2, (±)-1-(1H-1,2,4-triazolyl)-2-hydroxy-2-(2,4-dichlorophenyl)-3-methyl-4-(1,1,2,2-tetrafluoroethoxy)hexane] | 0.0312 µg/mL (≈ 0.0702 µM) | 0.125 µg/mL (≈ 0.281 µM) | 2 µg/mL (≈ 4.5 µM) | 4 µg/mL (≈ 9 µM) |  |  | % percentage of survival after day 3 (Candida albicans 1040): 100%; % percentage of survival after day 6 (Candida albicans 1040): 100%
2 | CC(C)(COC(F)(F)C(F)F)C(O)(Cn1cncn1)c1ccc(Cl)cc1 (racemic) [Compound 3, (±)-1-(1H-1,2,4-triazolyl)-2-hydroxy-2-(4-chlorophenyl)-3,3-dimethyl-4-(1,1,2,2-tetrafluoroethoxy)butane] | 0.0625 µg/mL (≈ 0.158 µM) | 0.0625 µg/mL (≈ 0.158 µM) | 1 µg/mL (≈ 2.53 µM) | > 128 µg/mL | 0.49 mg/kg/os | 1.3 mg/kg/os | MIC (C. krusei (2)): 0.03 to 0.5 µg/mL (≈ 0.0758 to 1.26 µM); MIC (C. glabrata (2)): 0.5 to 2 µg/mL (≈ 1.26 to 5.05 µM); MIC (B. capitatus (1)): 0.06 µg/mL (≈ 0.152 µM); MIC50 (C. albicans (7)): ≤ 0.03 µg/mL; MIC90 (C. albicans (7)): 2 µg/mL (≈ 5.05 µM); MIC50 (C. neoformans (4)): ≤ 0.03 µg/mL; MIC90 (C. neoformans (4)): 0.5 µg/mL (≈ 1.26 µM); MIC50 [1]: ≤ 0.03 µg/mL; MIC90 [1]: ≤ 0.03 µg/mL; MIC (C. tropicalis (2)): 0.5 µg/mL (≈ 1.26 µM); MIC (Trichosporon sp. (1)): 0.12 µg/mL (≈ 0.303 µM); MIC (Fusarium sp): 16 to 64 µg/mL (≈ 40.4 to 162 µM); % percentage of survival after day 3 (Candida albicans 1040): 100%; % percentage of survival after day 6 (Candida albicans 1040): 100%
3 | CC(COC(F)(F)C(F)F)C(O)(Cn1cncn1)c1ccc(Cl)cc1 (racemic) [Compound 4, (±)-1-(1H-1,2,4-triazolyl)-2-hydroxy-2-(4-chlorophenyl)-3-methyl-4-(1,1,2,2-tetrafluoroethoxy)butane] | 0.0312 µg/mL (≈ 0.0817 µM) | 0.5 µg/mL (≈ 1.31 µM) | 4 µg/mL (≈ 10.5 µM) | > 128 µg/mL | 0.31 mg/kg/os | 1.29 mg/kg/os | 
4 | CC(C)(COC(F)(F)C(F)F)C(O)(Cn1cncn1)c1ccc(F)cc1F (racemic) [Compound 5] | 0.0156 µg/mL (≈ 0.0393 µM) | 0.0156 µg/mL (≈ 0.0393 µM) | 0.25 µg/mL (≈ 0.629 µM) | 8 µg/mL (≈ 20.1 µM) | 0.50 mg/kg/os | 1.14 mg/kg/os | MIC50 (C. krusei (2)): ≤ 0.03 µg/mL; MIC90 (C. krusei (2)): 0.12 µg/mL (≈ 0.302 µM); MIC (C. glabrata (2)): 0.12 µg/mL (≈ 0.302 µM); MIC (B. capitatus (1)): 0.06 µg/mL (≈ 0.151 µM); MIC50 (C. albicans (7)): ≤ 0.03 µg/mL; MIC90 (C. albicans (7)): 0.5 µg/mL (≈ 1.26 µM); MIC50 (C. neoformans (4)): ≤ 0.03 µg/mL; MIC90 (C. neoformans (4)): ≤ 0.03 µg/mL; MIC50 [1]: ≤ 0.03 µg/mL; MIC90 [1]: ≤ 0.03 µg/mL; MIC (C. tropicalis (2)): 0.12 µg/mL (≈ 0.302 µM); MIC (Trichosporon sp. (1)): ≤ 0.03 µg/mL; MIC (Fusarium sp): 0.25 µg/mL (≈ 0.629 µM)
5 | CC(COC(F)(F)C(F)F)C(O)(Cn1cncn1)c1ccc(F)cc1F (racemic) [Compound 6, (±)-1-(1H-1,2,4-triazolyl)-2-hydroxy-2-(2.4-difluorophenyl)-3-methyl-4-(1,1,2,2-tetrafluoroethoxy)butane] | 0.0312 µg/mL (≈ 0.0814 µM) | 0.0625 µg/mL (≈ 0.163 µM) | 0.5 µg/mL (≈ 1.3 µM) | 16 µg/mL (≈ 41.7 µM) | 0.42 mg/kg/os | 1.10 mg/kg/os | 
6 | CCC(COC(F)(F)C(F)F)C(O)(Cn1cncn1)c1ccc(F)cc1F (racemic) [Compound 7, (±)-1-(1H-1,2,4-triazolyl)-2-hydroxy-2-(2,4-difluorophenyl)-3-ethyl-4-(1,1,2,2-tetrafluoroethoxy)butane nitrate] |  |  |  |  | 1.5 mg/kg/os | 2.19 mg/kg/os | IC50 (C. albicans 1040; Candida albicans, 1040, 48 h): 0.0312 µg/mL; IC50 (C. neoformans; 48 h): 0.125 µg/mL; MIC (T.mentagrophytes): 0.5 µg/mL; MIC (A. fumigatus): 16 µg/mL
7 | CC(C)(COC(F)(F)C(F)F)C(O)(Cn1cncn1)c1ccc(Cl)cc1Cl (racemic) [Compound 8, (±)-1-(1H-1,2,4-triazolyl)-2-hydroxy-2-(2,4-dichlorophenyl)-3,3-dimethyl-4-(1,1,2,2-tetrafluoroethoxy)butane] | 0.0312 µg/mL (≈ 0.0725 µM) | 0.0156 µg/mL (≈ 0.0363 µM) | 0.25 µg/mL (≈ 0.581 µM) | > 4 µg/mL |  |  | 
